Laboratory results reported in patent publication US20090170867A1, “TRPV1 ANTAGONISTS INCLUDING SULFONAMIDE SUBSTITUENT AND USES THEREOF” (Shionogi & Co., Ltd., priority 2007, published 2009).
Values after ≈ are worked out from the molar mass of the structure shown. Where two headings read alike, the source gives them in different places.

How the values were obtained:
[1] = Aqueous solubility; format: physicochemical; conditions: aqueous solution
[2] = biological target: T1, human TRPV1 (Homo sapiens, UniProt Q8NER1); experiment: Capsaicin-based assay, Protocol 2 (TRPV1/CHO cells, Fluo-4, FLIPR); format: cell-based; conditions: capsaicin 100 nM final, mean ± SEM, number of trials in parentheses, read-out: TRPV1 IC50 Potency, Human Capsaicin CHO (hCAP-CHO)
T1 construct: using primers designed surrounding the complete hTRPV1 open reading frame; expressed in transfected cells; host or cells: CHO-K1 cells stably transfected with pcDNA3.1(-)-hVR1 plasmid
Method in brief: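 CHO cells stably transfected with human TRPV1 cDNA, kept under G418 selection, loaded with 3 μM Fluo-4 for 1 h. Calcium fluorescence followed on FLIPR after a 15 s baseline against capsaicin challenge; compounds at final 100 μM to 1.5625 μM, curves fitted over the full time course.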

[3] = biological target: T1, human TRPV1; experiment: pH-based assay, Protocol 2 (TRPV1/CHO cells, Fura-2 AM, FDSS-3000, pH 5.0-5.1); format: cell-based; conditions: H2SO4 agonist, mean ± SEM, number of trials in parentheses, read-out: TRPV1 IC50 Potency, Human pH CHO (hpH-CHO)
[4] = pH 1.2, simulated gastric fluid, read-out: aqueous solubility at pH 1.2
[5] = pH 6.8, aqueous buffer, read-out: aqueous solubility at pH 6.8

T1 sequence (Q8NER1 whole entry): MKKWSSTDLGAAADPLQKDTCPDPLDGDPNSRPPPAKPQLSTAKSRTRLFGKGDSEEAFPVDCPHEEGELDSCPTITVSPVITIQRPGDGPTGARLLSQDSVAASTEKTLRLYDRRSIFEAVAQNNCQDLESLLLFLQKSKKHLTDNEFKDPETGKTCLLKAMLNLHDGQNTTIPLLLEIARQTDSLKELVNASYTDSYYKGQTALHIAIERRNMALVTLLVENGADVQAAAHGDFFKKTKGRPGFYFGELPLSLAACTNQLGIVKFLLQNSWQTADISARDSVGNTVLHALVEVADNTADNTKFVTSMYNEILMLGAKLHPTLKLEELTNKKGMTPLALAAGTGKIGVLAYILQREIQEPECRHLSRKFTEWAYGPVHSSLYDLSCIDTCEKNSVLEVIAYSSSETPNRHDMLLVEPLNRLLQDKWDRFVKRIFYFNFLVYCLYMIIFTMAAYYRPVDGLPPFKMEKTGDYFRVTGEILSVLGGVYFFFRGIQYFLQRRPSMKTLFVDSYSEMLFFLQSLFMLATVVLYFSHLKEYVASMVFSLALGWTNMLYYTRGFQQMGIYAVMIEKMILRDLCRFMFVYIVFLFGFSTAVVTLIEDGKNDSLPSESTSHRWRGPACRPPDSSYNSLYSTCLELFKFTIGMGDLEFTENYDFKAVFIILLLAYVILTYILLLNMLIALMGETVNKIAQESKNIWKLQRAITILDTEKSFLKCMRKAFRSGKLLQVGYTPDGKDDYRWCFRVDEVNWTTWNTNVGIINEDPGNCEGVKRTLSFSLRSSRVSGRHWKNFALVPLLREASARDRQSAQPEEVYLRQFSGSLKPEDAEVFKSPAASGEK

solubility [1, 4]	solubility [1, 5]	IC50 [2]	IC50 [3]	Compound
> 50 µM	> 50 µM	61.3 ± 22.5 nM	14.7 ± 3.3 nM	O=C(Nc1ccc(C(F)(F)F)cc1)N1CC=C(c2ncc([C@H](O)CO)cc2F)CC1 [Compound U1]
> 50 µM	26.4 µM (≈ 12.1 µg/mL)	27.9 ± 9.9 nM	13.5 nM	O=C(Nc1ccc(C(F)(F)F)c(Cl)c1)N1CC=C(c2ncc([C@H](O)CO)cc2F)CC1 [Compound U3]

Compound	solubility [1, 4]	solubility [1, 5]	IC50 [2]	IC50 [3]
O=C(Nc1ccc(C(F)(F)F)cc1)N1CC=C(c2ncc([C@H](O)CO)cc2Cl)CC1 [Compound Z1, (S)-3-Chloro-5-(1,2-dihydroxy-ethyl)-3′,6′-dihydro-2′H-[2,4′]bipyridinyl-1′-carboxylic acid (4-trifluoromethyl-phenyl)amide]	> 50 µM	> 50 µM	75.8 ± 12.4 nM	11.6 ± 0.7 nM
